# Read-outs that look alike come from different tables or passages of the source.
# Target: T1, F508delCFTR (Homo sapiens, UniProt P13569, DEL508-508)
# T1 construct: expressed in transfected cells; host or cells: CFBE41o- human lung-derived epithelial cells (CFBE4lo-F508delCFTR-HRP), doxycycline-inducible
# Assay: Cell Surface Expression-Horse Radish Peroxidase (CSE-HRP) Assay;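 for Maximum % activity (with co-corrector): co-corrector and positive control are both the same reference corrector at 2 µM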;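 for Maximum % activity (without co-corrector): percent of the 2 µM on-plate positive control corrector response above DMSO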
# Assay type: cell-based
# Details: for Emax / Maximum % activity (with co-corrector): maximum at any tested concentration, normalized to on-plate positive control; for Emax: read-out: Maximum % activity (without co-corrector); for Maximum % activity (with co-corrector): with co-corrector (2 μM)
# [1] = test compound without co-corrector
# [2] = test compound without co-corrector, read-out: EC50 (without co-corrector)
# [3] = with co-corrector (2 μM of 3-[(2R,4R)-4-({[1-(2,2-difluoro-1,3-benzodioxol-5-yl)cyclopropyl]carbonyl}amino)-7-methoxy-3,4-dihydro-2H-chromen-2-yl]benzoic acid), read-out: EC50 (with co-corrector)
# T1 sequence (P13569 with tags, fused parts or gaps DEL508-508): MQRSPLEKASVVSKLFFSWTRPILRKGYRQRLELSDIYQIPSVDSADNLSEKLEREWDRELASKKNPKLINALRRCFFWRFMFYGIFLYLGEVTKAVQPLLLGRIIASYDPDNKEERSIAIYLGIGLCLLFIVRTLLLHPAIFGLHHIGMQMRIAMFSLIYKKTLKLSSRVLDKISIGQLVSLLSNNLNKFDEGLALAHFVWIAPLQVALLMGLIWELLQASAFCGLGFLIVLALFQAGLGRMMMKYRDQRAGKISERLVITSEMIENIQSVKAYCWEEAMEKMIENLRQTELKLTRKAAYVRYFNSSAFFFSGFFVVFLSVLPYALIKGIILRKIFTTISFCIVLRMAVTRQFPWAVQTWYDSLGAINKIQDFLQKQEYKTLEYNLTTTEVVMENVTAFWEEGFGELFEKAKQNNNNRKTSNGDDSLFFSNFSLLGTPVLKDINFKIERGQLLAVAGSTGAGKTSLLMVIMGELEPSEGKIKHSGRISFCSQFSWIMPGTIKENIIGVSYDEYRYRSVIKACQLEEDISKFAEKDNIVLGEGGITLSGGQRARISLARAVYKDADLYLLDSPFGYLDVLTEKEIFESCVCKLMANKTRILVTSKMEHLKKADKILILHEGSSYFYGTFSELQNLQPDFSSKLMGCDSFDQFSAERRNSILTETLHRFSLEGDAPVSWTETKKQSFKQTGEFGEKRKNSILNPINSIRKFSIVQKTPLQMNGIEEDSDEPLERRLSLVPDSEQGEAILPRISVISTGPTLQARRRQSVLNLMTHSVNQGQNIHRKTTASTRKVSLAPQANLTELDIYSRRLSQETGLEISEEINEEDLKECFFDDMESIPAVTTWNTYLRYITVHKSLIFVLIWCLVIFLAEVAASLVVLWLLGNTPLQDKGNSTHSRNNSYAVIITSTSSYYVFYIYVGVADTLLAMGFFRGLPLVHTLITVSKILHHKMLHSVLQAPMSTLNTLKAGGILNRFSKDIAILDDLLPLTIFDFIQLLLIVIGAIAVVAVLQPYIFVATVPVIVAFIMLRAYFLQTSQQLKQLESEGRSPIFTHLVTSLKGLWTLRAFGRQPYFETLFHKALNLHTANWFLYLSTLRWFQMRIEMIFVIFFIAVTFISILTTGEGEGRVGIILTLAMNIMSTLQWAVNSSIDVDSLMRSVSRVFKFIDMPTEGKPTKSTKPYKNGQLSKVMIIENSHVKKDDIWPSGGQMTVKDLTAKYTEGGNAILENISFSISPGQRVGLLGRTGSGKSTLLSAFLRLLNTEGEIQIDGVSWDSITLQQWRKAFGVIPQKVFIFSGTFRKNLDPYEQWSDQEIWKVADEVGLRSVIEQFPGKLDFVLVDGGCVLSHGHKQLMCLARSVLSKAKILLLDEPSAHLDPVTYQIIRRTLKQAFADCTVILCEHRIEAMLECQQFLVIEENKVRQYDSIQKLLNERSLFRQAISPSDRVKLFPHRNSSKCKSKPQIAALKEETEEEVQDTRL
SMILES,Emax [1],EC50 [2],EC50 [3],Maximum % activity (with co-corrector)
COc1ccc(C(C)c2ccccc2)cc1CN[C@H]1[C@H](C(C)(C)C)[C@@H](C(=O)O)N(C(=O)C2CCCCC2)[C@H]1c1ccccc1 (some centres unmarked) [III-171],> 200%,1000 to 10000 nM,< 1000 nM,+++ (≥350)
COc1ccc(C(C)(C)C)cc1CN[C@H]1[C@H](C(C)(C)C)[C@@H](C(=O)O)N(C(=O)Cc2ccc(F)c(F)c2)[C@H]1c1ccccc1 [III-172],100 to 200%,1000 to 10000 nM,< 1000 nM,+++ (≥350)
COc1ccc(C(C)(C)C)cc1CN[C@H]1[C@H](C(C)(C)C)[C@@H](C(=O)O)N(C(=O)Cc2ccc(F)cc2F)[C@H]1c1ccccc1 [III-173],> 200%,1000 to 10000 nM,< 1000 nM,+++ (≥350)
COc1ccc(C(C)(C)C)cc1CN[C@H]1[C@H](C(C)(C)C)[C@@H](C(=O)O)N(C(=O)C2CCC(C)CC2)[C@H]1c1ccccc1 (some centres unmarked) [III-174],> 200%,< 1000 nM,< 1000 nM,+++ (≥350)
COc1ccc(C(C)(C)C)cc1CN[C@H]1[C@H](C(C)(C)C)[C@@H](C(=O)O)N(C(=O)C2CCCC(C)C2)[C@H]1c1ccccc1 (some centres unmarked) [III-175],> 200%,< 1000 nM,< 1000 nM,+++ (≥350)
COc1ccc(C(C)(C)C)cc1CN[C@H]1[C@H](C(C)(C)C)[C@@H](C(=O)O)N(C(=O)c2cn(C)cc(C)c2=O)[C@H]1c1ccccc1 [III-176],< 100%,> 10000 nM,> 10000 nM,+ (<150)
COc1ccc(C(C)(C)C)cc1CN[C@H]1[C@H](C(C)(C)C)[C@@H](C(=O)O)N(C(=O)c2cn(C)c3ccccc23)[C@H]1c1ccccc1 [III-177],< 100%,1000 to 10000 nM,1000 to 10000 nM,++ (≥150 and <350)
COc1ccc(C(C)(C)C)cc1CN[C@H]1[C@H](C(C)(C)C)[C@@H](C(=O)O)N(C(=O)c2cc(F)cc3c2OCOC3)[C@H]1c1ccccc1 [III-178],100 to 200%,1000 to 10000 nM,1000 to 10000 nM,+++ (≥350)
COc1ccc(C(C)(C)C)cc1CN[C@H]1[C@H](C(C)(C)C)[C@@H](C(=O)O)N(C(=O)C2CCOC(C(C)C)C2)[C@H]1c1ccccc1 (some centres unmarked) [III-179],> 200%,1000 to 10000 nM,< 1000 nM,+++ (≥350)
CC(C)(C)[C@H]1[C@H](NCc2cc3ccccc3nc2O)[C@H](c2ccccc2)N(C(=O)C2CCCCC2)[C@@H]1C(=O)O [III-180],< 100%,> 10000 nM,1000 to 10000 nM,++ (≥150 and <350)
COc1ccc(C23CC4CC(CC(C4)C2)C3)cc1CN[C@H]1[C@H](C(C)(C)C)[C@@H](C(=O)O)N(C(=O)C2CCCCC2)[C@H]1c1cccnc1N(C)C [III-183],> 200%,< 1000 nM,< 1000 nM,+++ (≥350)
COc1ccc(C(F)(F)F)cc1CN[C@H]1[C@H](C(C)(C)C)[C@@H](C(=O)O)N(C(=O)[C@H]2CCCC(F)(F)C2)[C@H]1c1ccccc1 [III-185],< 100%,1000 to 10000 nM,1000 to 10000 nM,++ (≥150 and <350)
COc1ccc(-c2cnn(C)c2)cc1CN[C@H]1[C@H](C(C)(C)C)[C@@H](C(=O)O)N(C(=O)C2CCCCC2)[C@H]1c1ccccc1 [III-186],< 100%,1000 to 10000 nM,1000 to 10000 nM,++ (≥150 and <350)
COc1ccc(-c2cnn(C3CC3)c2)cc1CN[C@H]1[C@H](C(C)(C)C)[C@@H](C(=O)O)N(C(=O)C2CCCCC2)[C@H]1c1ccccc1 [III-187],< 100%,1000 to 10000 nM,1000 to 10000 nM,++ (≥150 and <350)
COc1ncc(C(F)(F)F)cc1CN[C@H]1[C@H](C2(C)CC2)[C@@H](C(=O)O)N(C(=O)C2CCCCC2)[C@H]1c1ccccc1 [III-189],< 100%,1000 to 10000 nM,1000 to 10000 nM,++ (≥150 and <350)
COc1ccc(C(C)(C)C)cc1CN[C@H]1[C@H](C(C)(C)C)[C@@H](C(=O)O)N(C(=O)C(C)Oc2cc(C)cc(C)c2)[C@H]1c1ccccc1 (some centres unmarked) [III-190],> 200%,1000 to 10000 nM,< 1000 nM,+++ (≥350)
COc1ccc(C(C)(C)C)cc1CN[C@H]1[C@H](C(C)(C)C)[C@@H](C(=O)O)N(C(=O)C2CCc3ccccc3C2)[C@H]1c1ccccc1 (some centres unmarked) [III-191],> 200%,< 1000 nM,< 1000 nM,+++ (≥350)
COc1ccc(C(C)(C)C)cc1CN[C@H]1[C@H](C(C)(C)C)[C@@H](C(=O)O)N(C(=O)C2C3C2[C@H]2CC[C@@H]3C2)[C@H]1c1ccccc1 (some centres unmarked) [III-192],> 200%,< 1000 nM,< 1000 nM,+++ (≥350)

SMILES,Emax [1],EC50 [2],EC50 [3],Maximum % activity (with co-corrector)
COc1ccc(C(C)(C)C)cc1CN[C@H]1[C@H](C(C)(C)C)[C@@H](C(=O)O)N(C(=O)C2CC2c2cccs2)[C@H]1c1ccccc1 (some centres unmarked) [III-193],> 200%,< 1000 nM,< 1000 nM,+++ (≥350)
COc1ccc(C(C)(C)C)cc1CN[C@H]1[C@H](C(C)(C)C)[C@@H](C(=O)O)N(C(=O)c2cnn(-c3cccc(C)c3)c2C(C)C)[C@H]1c1ccccc1 [III-194],100 to 200%,1000 to 10000 nM,< 1000 nM,+++ (≥350)
COc1ccc(C(C)(C)C)cc1CN[C@H]1[C@H](C(C)(C)C)[C@@H](C(=O)O)N(C(=O)C2CCCCC2C)[C@H]1c1ccccc1 (some centres unmarked) [III-195],> 200%,< 1000 nM,< 1000 nM,+++ (≥350)
COc1ccc(C(F)(F)F)cc1CN[C@H]1[C@H](C(C)(C)C)[C@@H](C(=O)O)N(C(=O)C2CC(C)CC(C)C2)[C@H]1c1ccccc1 (some centres unmarked) [III-196],100 to 200%,< 1000 nM,< 1000 nM,+++ (≥350)
COc1ccc(C(F)(F)F)cc1CN[C@H]1[C@H](C(C)(C)C)[C@@H](C(=O)O)N(C(=O)C2CCC(C)(C)C2)[C@H]1c1ccccc1 (some centres unmarked) [III-197],100 to 200%,< 1000 nM,< 1000 nM,+++ (≥350)
COc1ccc(C(F)(F)F)cc1CN[C@H]1[C@H](C(C)(C)C)[C@@H](C(=O)O)N(C(=O)C2CCC(C)C2)[C@H]1c1ccccc1 (some centres unmarked) [III-198],> 200%,1000 to 10000 nM,< 1000 nM,+++ (≥350)
COc1ccc(C(F)(F)F)cc1CN[C@@H]1[C@@H](C(C)(C)C)[C@H](C(=O)O)N(C(=O)C2CCCCC2)[C@H]1c1ccccc1 [III-199],< 100%,1000 to 10000 nM,1000 to 10000 nM,++ (≥150 and <350)
COc1ncc(C(F)(F)F)cc1CN[C@H]1[C@H](C(C)(C)C)[C@@H](C(=O)O)N(C(=O)[C@@H]2OCC[C@@H]2Cn2cccn2)[C@H]1c1ccccc1 [III-200],< 100%,> 10000 nM,1000 to 10000 nM,++ (≥150 and <350)
COc1ncc(C(F)(F)F)cc1CN[C@H]1[C@H](C(C)(C)C)[C@@H](C(=O)O)N(C(=O)C2CC(C)CC(C)C2)[C@H]1c1ccccc1 (some centres unmarked) [III-201],100 to 200%,< 1000 nM,< 1000 nM,+++ (≥350)
COc1ccc(C23CC(C2)C3)cc1CN[C@H]1[C@H](C(C)(C)C)[C@@H](C(=O)O)N(C(=O)C2CCCCC2)[C@H]1c1ccccc1 [III-202],> 200%,< 1000 nM,< 1000 nM,+++ (≥350)
COc1ccc(C(C)(C)C)cc1CN[C@H]1[C@H](C(C)(C)C)[C@@H](C(=O)O)N(C(=O)C2CCCC(C)(C)C2)[C@H]1c1ccccc1 (some centres unmarked) [III-203],> 200%,< 1000 nM,< 1000 nM,+++ (≥350)
COc1ccc(C(C)(C)C)cc1CN[C@H]1[C@H](C(C)(C)C)[C@@H](C(=O)O)N(C(=O)C2CCCC2(C)C)[C@H]1c1ccccc1 (some centres unmarked) [III-204],> 200%,< 1000 nM,< 1000 nM,+++ (≥350)
COc1ccc(C(C)(C)C)cc1CN[C@H]1[C@H](C(C)(C)C)[C@@H](C(=O)O)N(C(=O)C2CCCCC2C)[C@H]1c1cccnc1N(C)C (some centres unmarked) [III-205],> 200%,1000 to 10000 nM,< 1000 nM,+++ (≥350)
COc1ccc(C(C)(C)C)cc1CN[C@H]1[C@H](C(C)(C)C)[C@@H](C(=O)O)N(C(=O)C2CCCC(C(F)(F)F)C2)[C@H]1c1cccnc1N(C)C (some centres unmarked) [III-206],> 200%,1000 to 10000 nM,< 1000 nM,+++ (≥350)
COc1ncc(C2CCC2)cc1CN[C@H]1[C@H](C(C)(C)C)[C@@H](C(=O)O)N(C(=O)C2CC(C)CC(C)C2)[C@H]1c1ccccc1 (some centres unmarked) [III-207],100 to 200%,1000 to 10000 nM,< 1000 nM,+++ (≥350)
COc1ncc(C2CCC2)cc1CN[C@H]1[C@H](C(C)(C)C)[C@@H](C(=O)O)N(C(=O)C2CCCCC2C)[C@H]1c1ccccc1 (some centres unmarked) [III-208],100 to 200%,1000 to 10000 nM,< 1000 nM,+++ (≥350)
COc1ncc(C2CCC2)cc1CN[C@H]1[C@H](C(C)(C)C)[C@@H](C(=O)O)N(C(=O)C2CCCC(C(F)(F)F)C2)[C@H]1c1ccccc1 (some centres unmarked) [III-209],100 to 200%,1000 to 10000 nM,< 1000 nM,+++ (≥350)

# Source: patent US20180099931A1 (AbbVie S.à.r.l., priority 2016, published 2018)
